{
  "source": "patent US20230172915A1",
  "about": "“DHODH INHIBITOR FOR THE TREATMENT OF COVID-19” (priority 2020, published 2023)",
  "key": {"Poliovirus": {"system": "Poliovirus", "test": "microbe, parasite or virus in culture", "type": "cell-based", "settings": "Enterovirus C, HeLa, read-out: EC50 Poliovirus"}, "Ebola virus": {"system": "Ebola virus", "test": "microbe, parasite or virus in culture", "type": "cell-based", "settings": "Zaire ebolavirus, Vero, read-out: EC50 Ebola virus"}, "Rift Valley fever virus": {"system": "Rift Valley fever virus", "test": "microbe, parasite or virus in culture", "type": "cell-based", "settings": "HeLa, read-out: EC50 Rift Valley fever virus"}, "[1]": {"system": "HT1080 human fibrosarcoma cells", "test": "De novo pyrimidine nucleotide synthesis from 15N-glutamine in HT1080 cells", "type": "cell-based", "settings": "100 nM", "from_the_text": "In this Example, fibrosarcoma cells were used to investigate the effect of PTC299 on pyrimidine nucleotide synthesis. Glutamine is an upstream precursor of dihydroorotic acid in the de novo pyrimidine synthesis pathway, as illustrated in FIG. 1."}, "PBMCs plus B cells (BT)": {"system": "PBMCs plus B cells (BT)", "test": "BioMAP profiling, BT system", "type": "cell-based", "settings": "for inhibition at 0.01 µM: 10 nM; for inhibition at 0.1 µM: 100 nM", "procedure": "(§1) The effect of PTC299 on cytokine production was assessed using BioMAP profiling (BioSeek, now part of Eurofins). The BioMAP system is comprised of complex co-cultures of primary peripheral blood mononuclear cells (PBMCs) with other cell types including B cells, fibroblasts, and endothelial cells allowing for the measurement of physiologically relevant biomarker readouts of the activity of a compound. Using this system, cytokine production was evaluated in the following models of primary cell disease models: • Peripheral blood mononuclear cells (PBMCs) plus venular endothelial cells (sAg) • PBMCs plus B cells (BT) • PBMCs plus fibroblasts (HDFSAg) • TH2 cells plus venular endothelial cells (/TH2).\n(§2) Abbreviations in Table 4: BCR, B-cell receptor; BT System, co-culture of CD19+ B cells and PBMC that utilizes BCR stimulation and sub-mitogenic TCR stimulation; HDFSAg system, co-culture of human primary dermal fibroblasts and PBMC that is stimulated with sub-mitogenic TCR levels; IL, interleukin; PBMC, Peripheral Blood Mononuclear Cell; SAg system, co-culture of endothelial cells and PBMC stimulated with mitogenic levels of TCR ligands; TCR, T-cell receptor; /TH2 system, co-culture of endothelial cells and Th2 blasts stimulated with TCR ligands and cytokines; Th2, T helper type 2; VEGF, vascular endothelial growth factor."}, "[2]": {"system": "PBMCs plus fibroblasts (HDFSAg)", "test": "BioMAP profiling, HDFSAg system", "type": "cell-based", "settings": "Homo sapiens", "procedure": "as §1, §2"}, "DHODH [3]": {"system": "DHODH", "test": "Rhesus monkey single oral dose PD (plasma DHO)", "type": "in vivo, Rhesus monkeys", "settings": "after single oral 10 mg/kg dose of PTC299, Rhesus monkey", "procedure": "FIG. 10 is a plot of PTC299 plasma concentration (µg/mL) vs hours of plasma dihydroorotate (DHO) and PTC299 concentrations after a single dose of PTC299 was administered to a single monkey.\nThe dosing regimen used in the current study was also supported by experiments performed in Rhesus monkeys. Monkeys were given a single oral 10 mg/kg dose of PTC299. The DHO plasma level increased after dosing, peaked at 24 hours and then decreased, as illustrated in FIG. 10. […] The AUC for PTC299 is consistent with that observed in the healthy volunteer study PTC299-ONC-002-HV indicating this exposure would result in inhibition of DHODH and supports the use of the 200 mg BID dosing regimen in the current study."}, "[4]": {"test": "Clinical studies of PTC299 (oncology patients, healthy volunteers): tolerability", "type": "in vivo, human", "from_the_text": "PTC299 has been extensively evaluated in 9 clinical studies; 5 were in oncology (n=134) and 4 were in healthy volunteers (n=169).\nThe rationale for this dosing is based on the following: • The dosing regimen utilizes results from PTC’s extensive clinical, safety, and clinical pharmacology experience with the capsule formulation of PTC299 that was used in prior solid tumor clinical studies. • The tablet formulation has approximately 40% relative bioavailability compared with the capsule when administered with food. • The 200 mg BID dosing for 7 days have been tested previously in healthy volunteers in study PTC299-ONC-002-HV with no serious adverse events. […] The dosing of 200 mg BID for the first 7 days will raise the exposure of the drug quickly to accommodate the need for rapid onset of PTC299 activity.."}, "SARS-CoV-2 USA-WA1/2020": {"system": "SARS-CoV-2 USA-WA1/2020", "test": "PTC299 and remdesivir alone or combined, SARS-CoV-2 titer in Vero cells (TCID50)", "type": "cell-based", "settings": "24 hours post infection"}, "[5]": {"system": "primary acute myeloid leukemia (AML) blast cells", "settings": "Cao 2020; cited from earlier work"}, "[6]": {"test": "Bacterial mutagenicity (Ames) test"}, "[7]": {"test": "Cytotoxicity in Vero cells by intracellular ATP", "settings": "African green monkey"}, "[8]": {"test": "Single- and repeat-dose toxicology studies in rats"}, "[9]": {"test": "Single- and repeat-dose toxicology studies in dogs"}, "DHODH [10]": {"system": "DHODH", "test": "Study PTC299-ONC-007-NF2: serum DHO and VEGF in neurofibromatosis type 2 patients", "settings": "100 mg BID"}, "[11]": {"settings": "read-out: % Inhibition s-IL-17F"}},
  "note": "Read-outs that look alike come from different tables or passages of the source.",
  "data": [
    {"molecule": "COc1ccc([C@H]2c3[nH]c4ccc(Cl)cc4c3CCN2C(=O)Oc2ccc(Cl)cc2)cc1", "note": "[PTC299, 4-chlorophenyl (S)-6-chloro-1-(4-methoxyphenyl)-1,3,4,9-tetrahydro-2H-pyrido[3,4-b]indole-2-carboxylate]", "values": [
      {"measurement": "EC50", "setting": "Poliovirus", "value": 0.6, "unit": "nM"},
      {"measurement": "EC50", "setting": "Ebola virus", "value": 9, "unit": "nM"},
      {"measurement": "EC50", "setting": "Rift Valley fever virus", "value": 13, "unit": "nM"},
      {"measurement": "suppression of de novo pyrimidine nucleotide biosynthesis", "setting": "[1]", "value": "resulted in suppression of de novo pyrimidine nucleotide biosynthesis"},
      {"measurement": "inhibition at 0.01 µM", "setting": "PBMCs plus B cells (BT); read-out: % Inhibition s-IL-6", "value": 53, "unit": "%"},
      {"measurement": "inhibition at 0.01 µM", "setting": "PBMCs plus B cells (BT); [11]", "value": 58, "unit": "%"},
      {"measurement": "inhibition at 0.01 µM", "setting": "PBMCs plus B cells (BT); read-out: % Inhibition sIL-17A", "value": 68, "unit": "%"},
      {"measurement": "inhibition at 0.01 µM", "setting": "PBMCs plus B cells (BT); read-out: % Inhibition sIgG", "value": 97, "unit": "%"},
      {"measurement": "inhibition at 0.01 µM", "setting": "PBMCs plus B cells (BT); read-out: % Inhibition sTNFa", "value": 49, "unit": "%"},
      {"measurement": "inhibition at 0.1 µM", "setting": "PBMCs plus B cells (BT); read-out: % Inhibition s-IL-6", "value": 72, "unit": "%"},
      {"measurement": "inhibition at 0.1 µM", "setting": "PBMCs plus B cells (BT); [11]", "value": 74, "unit": "%"},
      {"measurement": "inhibition at 0.1 µM", "setting": "PBMCs plus B cells (BT); read-out: % Inhibition sIL-17A", "value": 83, "unit": "%"},
      {"measurement": "inhibition at 0.1 µM", "setting": "PBMCs plus B cells (BT); read-out: % Inhibition sIgG", "value": 98, "unit": "%"},
      {"measurement": "inhibition at 0.1 µM", "setting": "PBMCs plus B cells (BT); read-out: % Inhibition sTNFa", "value": 66, "unit": "%"},
      {"measurement": "inhibition at 0.1 µM", "setting": "PBMCs plus B cells (BT); B-cell, read-out: % Inhibition B cell proliferation", "value": 31, "unit": "%"},
      {"measurement": "inhibition at 0.001 µM", "setting": "[2]; read-out: % Inhibition sVEGF", "value": 90, "unit": "%"},
      {"measurement": "inhibition at 0.01 µM", "setting": "[2]; read-out: % Inhibition sVEGF", "value": 84, "unit": "%"},
      {"measurement": "inhibition at 0.1 µM", "setting": "[2]; read-out: % Inhibition sVEGF", "value": 60, "unit": "%"},
      {"measurement": "inhibition at 0.001 µM", "setting": "[2]; HDFSAg, 1 nM, read-out: % Inhibition sIL-6", "value": 33, "unit": "%"},
      {"measurement": "inhibition at 0.001 µM", "setting": "[2]; HDFSAg, 1 nM, read-out: % Inhibition sIL-17F", "value": 46, "unit": "%"},
      {"measurement": "inhibition at 0.01 µM", "setting": "[2]; HDFSAg, 10 nM, read-out: % Inhibition IL-8", "value": 25, "unit": "%"},
      {"measurement": "inhibition at 0.01 µM", "setting": "[2]; HDFSAg, 10 nM, read-out: % Inhibition sIL-2", "value": 47, "unit": "%"},
      {"measurement": "inhibition at 0.01 µM", "setting": "[2]; HDFSAg, 10 nM, read-out: % Inhibition sIL-6", "value": 91, "unit": "%"},
      {"measurement": "inhibition at 0.01 µM", "setting": "[2]; HDFSAg, 10 nM, read-out: % Inhibition sIL-10", "value": 73, "unit": "%"},
      {"measurement": "inhibition at 0.01 µM", "setting": "[2]; HDFSAg, 10 nM, read-out: % Inhibition sIL-17A", "value": 57, "unit": "%"},
      {"measurement": "inhibition at 0.01 µM", "setting": "[2]; HDFSAg, 10 nM, read-out: % Inhibition sIL-17F", "value": 86, "unit": "%"},
      {"measurement": "inhibition at 0.1 µM", "setting": "[2]; HDFSAg, 100 nM, read-out: % Inhibition IL-8", "value": 44, "unit": "%"},
      {"measurement": "inhibition at 0.1 µM", "setting": "[2]; HDFSAg, 100 nM, read-out: % Inhibition MCP-1", "value": 33, "unit": "%"},
      {"measurement": "inhibition at 0.1 µM", "setting": "[2]; HDFSAg, 100 nM, read-out: % Inhibition MMP-1", "value": 23, "unit": "%"},
      {"measurement": "inhibition at 0.1 µM", "setting": "[2]; HDFSAg, 100 nM, read-out: % Inhibition sIL-2", "value": 68, "unit": "%"},
      {"measurement": "inhibition at 0.1 µM", "setting": "[2]; HDFSAg, 100 nM, read-out: % Inhibition sIL-6", "value": 96, "unit": "%"},
      {"measurement": "inhibition at 0.1 µM", "setting": "[2]; HDFSAg, 100 nM, read-out: % Inhibition sIL-10", "value": 81, "unit": "%"},
      {"measurement": "inhibition at 0.1 µM", "setting": "[2]; HDFSAg, 100 nM, read-out: % Inhibition sIL-17A", "value": 74, "unit": "%"},
      {"measurement": "inhibition at 0.1 µM", "setting": "[2]; HDFSAg, 100 nM, read-out: % Inhibition sIL-17F", "value": 83, "unit": "%"},
      {"measurement": "inhibition at 0.1 µM", "setting": "[2]; HDFSAg, 100 nM, read-out: % Inhibition sTNFa", "value": 35, "unit": "%"},
      {"measurement": "AUC of plasma DHO", "setting": "DHODH [3]", "value": 71.4, "unit": "µg·h/mL"},
      {"measurement": "tolerability across 9 clinical studies", "setting": "[4]; oncology n=134, healthy volunteers n=169, range of dosing regimens", "value": "generally well tolerated"},
      {"measurement": "dose-related hepatotoxicity", "setting": "[4]; prior clinical studies", "value": "observed at higher doses and longer treatment durations (>85 days)"},
      {"measurement": "reduction in SARS-CoV-2 titer", "setting": "SARS-CoV-2 USA-WA1/2020; PTC299 250 nM", "value": 96, "unit": "%"},
      {"measurement": "reduction in SARS-CoV-2 titer", "setting": "SARS-CoV-2 USA-WA1/2020; PTC299 500 nM", "value": 98, "unit": "%"},
      {"measurement": "effect on primary AML blast cells", "setting": "[5]", "value": "caused a G1/S cell-cycle arrest, inhibition of proliferation, and cell death"},
      {"measurement": "bacterial mutagenicity (Ames) test", "setting": "[6]", "value": "negative"},
      {"measurement": "CC50 at 48 h", "setting": "[7]", "value": "> 10000", "unit": "nM"},
      {"measurement": "alanine aminotransferase, aspartate aminotransferase, and total bilirubin", "setting": "[8]; rats dosed through 28 days", "value": "no increases"},
      {"measurement": "histopathologic findings in the liver", "setting": "[8]; rats dosed through 28 days", "value": "no histopathologic findings in the liver"},
      {"measurement": "PTC299-related mortality", "setting": "[8]; rats, toxicology studies", "value": "No PTC299-related mortality was observed"},
      {"measurement": "alanine aminotransferase, aspartate aminotransferase, and total bilirubin", "setting": "[9]; dogs dosed through 28 days", "value": "no increases"},
      {"measurement": "histopathologic findings in the liver", "setting": "[9]; dogs dosed through 28 days", "value": "no histopathologic findings in the liver"},
      {"measurement": "PTC299-related mortality", "setting": "[9]; dogs, toxicology studies", "value": "No PTC299-related mortality was observed"},
      {"measurement": "serum VEGF levels", "setting": "DHODH [10]; 8 weeks versus pre-dose", "value": "significantly reduced after 8 weeks of treatment"},
      {"measurement": "serum DHO levels", "setting": "DHODH [10]; post-dose versus pre-dose", "value": "elevated at 8 or 16 weeks"}
    ]}
  ]
}
